Measurements: publication PMC2796783, “Pharmacological Characterization of Inositol 1,4,5-tris Phosphate Receptors in Human Platelet Membranes” (Cardiovascular Psychiatry and Neurology, 2009)

Legend:
[1] = test system: T1, Ins(1,4,5)P3 receptors in human platelet membranes; test: displacement of […] [3H]Ins([…])P3, filtration, log probit analysis; type: binding; details: 20 nM [3H]Ins(1,4,5)P3, 50 mM Tris-HCl pH 8.5, 1 mM EDTA, 4 °C, 10 min
T1 construct: gene ITPR1; native receptor in crude platelet membranes of healthy human subjects; not purified; tetrameric channel

[2] = test system: T1, Ins(1,4,5)P3 receptors in human platelet membranes; test: radioligand saturation binding, filtration, Scatchard (EBDA); details: 50 mM Tris-HCl pH 8.5, 1 mM EDTA, 1 mM 2-mercaptoethanol, 4 °C, 10 min; labelled compound; crude platelet membranes; single site

Row | IC50 [1] [nM] | IC50 ([1]; error exceeds the value) [nM] | SMILES | Kd [2] [nM]
1 | 1900 ± 680 |  | O=P(O)(O)O[C@H]1[C@@H](O)[C@H](O)[C@@H](OP(=O)(O)O)[C@H](OP(=O)(O)O)[C@H]1O [D-Ins(2,4,5)P3] | 
2 |  | 300 ± 500 | O=P(O)(O)O[C@@H]1[C@H](O)[C@H](O)[C@@H](OP(=O)(O)O)[C@H](OP(=O)(O)O)[C@H]1O [[^3H]Ins(1,4,5)P3] | 22.1 ± 2.34
3 | 354000 ± 37000 |  | O=P(O)(O)O[C@@H]1[C@@H](O)[C@H](OP(=O)(O)O)[C@@H](OP(=O)(O)O)[C@H](O)[C@@H]1O [L-Ins(1,4,5)P3] | 
4 | 4970 ± 1830 |  | O=P(O)(O)O[C@@H]1[C@@H](O)[C@@H](O)[C@@H](OP(=O)(O)OC[C@H](O)CO)[C@H](O)[C@H]1OP(=O)(O)O [GPIP2] | 
